Tests used:
Type in all cases: cell-based
T-47D cells = assay: Inhibition of cell proliferation in T-47D cells (CCK-8); settings: Homo sapiens, T47D, 144 h, 6 days treatment, CCK-8 cell viability
Summary of the method: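 Viability by CCK-8 after a 6-day, 37 °C/5% CO2 exposure of T-47D cells (3,000/well, RPMI-1640 + 10% FBS) to graded PROTAC concentrations. Inhibition rates gave the IC50.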

ERα [1] = biological target: T1, ERα (Homo sapiens, UniProt P03372); assay: ERα degradation in MCF-7 cells (Western blot); set-up: host or cells: MCF-7; settings: 4 hours
T1 sequence (P03372 1-595): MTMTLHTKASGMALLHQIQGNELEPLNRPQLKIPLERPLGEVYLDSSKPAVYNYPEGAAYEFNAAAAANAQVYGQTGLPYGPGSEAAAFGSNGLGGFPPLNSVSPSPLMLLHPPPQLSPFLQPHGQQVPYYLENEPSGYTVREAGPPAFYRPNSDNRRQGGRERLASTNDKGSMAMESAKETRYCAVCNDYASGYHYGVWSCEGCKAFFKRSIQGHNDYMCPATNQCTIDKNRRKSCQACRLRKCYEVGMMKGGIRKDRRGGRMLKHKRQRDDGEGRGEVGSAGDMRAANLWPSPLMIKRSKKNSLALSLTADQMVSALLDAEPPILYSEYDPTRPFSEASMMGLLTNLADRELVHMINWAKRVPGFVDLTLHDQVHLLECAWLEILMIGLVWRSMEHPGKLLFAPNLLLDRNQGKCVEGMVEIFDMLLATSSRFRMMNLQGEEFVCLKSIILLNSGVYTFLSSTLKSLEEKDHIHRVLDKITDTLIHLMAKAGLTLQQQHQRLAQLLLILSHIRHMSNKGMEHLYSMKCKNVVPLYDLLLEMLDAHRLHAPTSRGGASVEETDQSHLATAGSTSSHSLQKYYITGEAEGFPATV
Description: Test Example 4 Effect of PROTAC Compounds Disclosed in the Present Invention on ERα Degradation in MCF-7 Cells
MCF-7 (ATCC) cells were cultured in DMEM medium (11995-065, Gibco) containing 10% FBS (10099141C, Gibco) at 37°C and 5% CO2 until they entered the logarithmic growth phase. MCF-7 cells were plated at a density of 3×10^5 cells/well in a 6-well plate and incubated at 37°C, 5% CO2 for 24 hours. After cell attachment, 1µL of compound in dimethyl sulfoxide (final concentration 0.15-1000nM) was added and incubated for another 4 hours at 37°C, 5% CO2 incubator. After 4 hours, the culture medium was discarded, and each well was washed once with 1 mL of pre-chilled 1× DPBS. The cells were then lysed with 50 µL of RIPA lysis buffer (P0013B, Beyotime) and 1× protease inhibitor cocktail (P1005, Beyotime). After incubation on ice for 20 minutes, the cells were centrifuged at 14,000 g at 4°C for 30 minutes. The supernatant was carefully collected and analyzed for ERα protein levels by immunoblotting.
(§1) Western blotting: The total protein concentration in the collected cell lysate supernatant was determined using the BCA protein concentration assay kit (enhanced) (P0009, Beyotime). Based on the total protein concentration determined by BCA, the protein concentration was adjusted to 1 µg/µL using RIPA lysis buffer and 5× SDS-PAGE protein loading buffer (MB01015, GenScript). The protein was denatured in a 95°C water bath for 5 minutes. After denaturation, the condensed water on the tube wall was collected by centrifugation and used as the loading sample. 20µL of the loading sample (20 µg of total protein) was added to the sample well of a 12% precast gel (M00669, GenScript). Electrophoresis was performed at 100 V for 20 minutes, followed by switching to 150 V for 40 minutes. After electrophoresis, the proteins from the SDS-PAGE gel were transferred to a PVDF membrane at a constant voltage of 100 V for 60 minutes. After transfer, the PVDF membrane corresponding to the ERα protein and internal reference protein was cut and incubated in 1× QµickBlock blocking buffer (P0252, Beyotime) for 30 minutes at room temperature on a shaker. After blocking, the ERα primary antibody (1:1000, 8644S, CST) was added and incubated overnight at 4°C on a shaker. The PVDF membrane was washed three times with 1× TBST buffer for 5 minutes each. Rabbit IgG (H+L) secondary antibody (1:7500, SA5-35571, Invitrogen) was added and incubated for 1 hour at room temperature on a shaker. The membrane was then washed again three times with 1× TBST buffer for 5 minutes each. Finally, the membrane was imaged using a dual-color infrared laser imaging system (Odyssey DLx, LICOR). Protein maps were analyzed for grayscale value using Image Studio Lite software. The grayscale correction value for each sample was calculated using the formula: grayscale correction value = grayscale value of the target protein / grayscale value of the corresponding internal reference. Then the grayscale correction values of the compound group and the control group were compared to calculate the degradation rate of the compound. Table 4 Degradation rate of ERα by PROTAC compounds of the present invention and positive control in MCF-7 cells (%)

MCF-7 cells = assay: Inhibition of cell proliferation in MCF-7 cells (CCK-8); settings: Homo sapiens, MCF7, 144 h, MCF-7 cell proliferation, 6 days treatment
Summary of the method: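 IC50 from CCK-8 viability-based inhibition after 6-day treatment of MCF-7 cells (800 cells/well, 10% FBS DMEM, 37 °C, 5% CO2) with serially varied compound concentrations.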

ERα [2] = biological target: T1, ERα; assay: ERα degradation in T-47D cells (Western blot); settings: 4 hours
Description: as §1
Test Example 5 Degradation of ERα by the PROTAC compounds disclosed in the present invention in T-47D cells
T-47D (ATCC) cells were cultured in PRMI-1640 medium (30-2001, ATCC) containing 10% FBS (10099141C, Gibco) at 37°C and 5% CO2 until they entered the logarithmic growth phase. T-47D cells were seeded at a density of 3×10^5 cells/well in a 6-well plate and incubated at 37°C, 5% CO2 for 24 hours. After cell attachment, 1 µL of compound dimethyl sulfoxide solution (final concentration 0.15-1000 nM) was added and incubated for another 4 hours at 37°C, 5% CO2 incubator. After 4 hours, the culture medium was discarded, and each well was washed once with 1 mL of pre-chilled 1× DPBS. The cells were then lysed with 50 µL of RIPA lysis buffer (P0013B, Beyotime) and 1× protease inhibitor cocktail (P1005, Beyotime). After incubation on ice for 20 minutes, the cells were centrifuged at 14,000 g at 4°C for 30 minutes. The supernatant was carefully collected and analyzed for ERα protein levels by immunoblotting. Table 5 Degradation rate of ERα by PROTAC compounds of the present invention and positive control sample in T-47D cells (%)

IC50 (T-47D cells) [nM]	Degradation rate of ERα in MCF-7 cells (%) (ERα [1]; 1nM)	Degradation rate of ERα in MCF-7 cells (%) (ERα [1]; 10nM)	IC50 (MCF-7 cells) [nM]	Degradation rate of ERα in T-47D cells (%) (ERα [2]; 1nM)	Degradation rate of ERα in T-47D cells (%) (ERα [2]; 10nM)	Compound
3.19	3	62	12.7	12	68	O=C1CCC(N2Cc3c(ccc4c3OCC43CCC4(CCN(C5CCC6(CC5)CCN(c5ccc([C@@H]7c8ccc(O)cc8CC[C@@H]7c7ccccc7)cc5)CC6)CC4)CC3)C2=O)C(=O)N1 (stereo partly drawn) [ER-P-57]
3.74	19	44	< 0.256	52	81	O=C1CCC(N2Cc3c(ccc4c3OCC43CCC4(CCN(CC5CCN(c6ccc([C@@H]7c8ccc(O)cc8CC[C@@H]7c7ccccc7)cc6)CC5)CC4)CC3)C2=O)C(=O)N1 (stereo partly drawn) [ER-P-1, 3-(1"-((1-(4-((1R,2S)-6-hydroxy-2-phenyl-1,2,3,4-tetrahydronaphthalen-1-yl)phenyl)piperidin-4-yl)methyl)-6-oxo-6,8-dihydro-2H,7H-dipyrazole[furo[2,3-e]isoindole-3,1'-cyclohexane-4',4'-piperidin]-7-yl)piperidine-2,6-dione]
1.96	30	71	7.44	46	83	O=C1CCC(N2Cc3c(ccc4c3OCC43CCC4(CC3)CN(C3CCC5(CC3)CCN(c3ccc([C@@H]6c7ccc(O)cc7CC[C@@H]6c6ccccc6)cc3)CC5)C4)C2=O)C(=O)N1 (stereo partly drawn) [ER-P-9]
2.19	42	69	12.8	35	71	O=C1CCC(N2Cc3c(ccc4c3OCC43CCC4(CCN(C5CCN(c6ccc([C@@H]7c8ccc(O)cc8CC[C@@H]7c7ccccc7)cc6)CC5)CC4)CC3)C2=O)C(=O)N1 (stereo partly drawn) [ER-P-58]
25.1	7	-11	2280	0	1	O=C1CCC(Nc2ccc3c(c2)OC[C@@H]2CN(C4CCC5(CC4)CN(c4ccc([C@@H]6c7ccc(O)cc7CC[C@@H]6c6ccccc6)cc4)C5)CCN32)C(=O)N1 (stereo partly drawn) [ER-P-36, 3-(((S)-3-(2-(4-((1R,2S)-6-hydroxy-2-phenyl-1,2,3,4-tetrahydronaphthalen-1-yl)phenyl)-2-azaspiro[3.5]nonan-7-yl)-1,2,3,4,4a,5-hexahydrobenzo[b]pyrazino[1,2-d][1,4]oxazin-8-yl)amino)piperidine-2,6-dione]
0.84	49	53	1.26	77	71	Cn1c(=O)n(C2CCC(=O)NC2=O)c2ccc3c(c21)OCC31CCN(C(=O)C2CN(CC3CCN(c4ccc([C@@H]5c6ccc(O)cc6CC[C@@H]5c5ccccc5)cc4)CC3)C2)CC1 (stereo partly drawn) [ER-P-25, 3-(1'-(1-((1-(4-((1R,2S)-6-hydroxy-2-phenyl-1,2,3,4-tetrahydronaphthalen-1-yl)phenyl)piperidin-4-yl)methyl)azetidine-3-carbonyl)-1-methyl-2-oxo-1,2-dihydro-3H,7H-spiro[benzofuro[6,7-d]imidazole-6,4'-piperidin]-3-yl)piperidine-2,6-dione]

Compound	IC50 (T-47D cells) [nM]	Degradation rate of ERα in MCF-7 cells (%) (ERα [1]; 1nM)	Degradation rate of ERα in MCF-7 cells (%) (ERα [1]; 10nM)	IC50 (MCF-7 cells) [nM]	Degradation rate of ERα in T-47D cells (%) (ERα [2]; 1nM)	Degradation rate of ERα in T-47D cells (%) (ERα [2]; 10nM)
O=C1CCC(N2Cc3c(ccc4c3OCC43CCC4(CC3)CN(C3CCN(C(=O)C5CCN(c6ccc([C@@H]7c8ccc(O)cc8CC[C@@H]7c7ccccc7)cc6)CC5)CC3)C4)C2=O)C(=O)N1 (stereo partly drawn) [ER-P-6]	0.86	55	71	< 0.256	61	83
O=C1CC[C@H](NC(=O)c2ccc3c(c2F)OCC32CCN(C3CCC4(CC3)CN(c3ccc([C@@H]5c6ccc(O)cc6CC[C@@H]5c5ccccc5)cc3)C4)CC2)C(=O)N1 [ER-P-38, N-((S)-2,6-dioxopiperidin-3-yl)-7-fluoro-1'-(2-(4-((1R,2S)-6-hydroxy-2-phenyl-1,2,3,4-tetrahydronaphthalen-1-yl)phenyl)-2-azaspiro[3.5]nonan-7-yl)-2H-spiro[benzofuran-3,4'-piperidine]-6-carboxamide]	18.6	12	-14	505	1	3
Cn1c(=O)n(C2CCC(=O)NC2=O)c2ccc3c(c21)OCC31CCN(C[C@H]2CC[C@@H](OC3CCN(c4ccc([C@@H]5c6ccc(O)cc6CC[C@@H]5c5ccccc5)cc4)CC3)CC2)CC1 (stereo partly drawn) [ER-P-54, 3-(1'-(((1S,4S)-4-((1-(4-((1R,2S)-6-hydroxy-2-phenyl-1,2,3,4-tetrahydronaphthalen-1-yl)phenyl)piperidin-4-yl)oxy)cyclohexyl)methyl)-1-methyl-2-oxo-1,2-dihydro-3H,7H-spiro[benzofuro[6,7-d]imidazole-6,4'-piperidin]-3-yl)piperidine-2,6-dione]	0.15	50	76	1020	67	81

Reference: patent publication EP4722219A1 (Gan & Lee Pharmaceuticals Co., Ltd., priority 2023, dated 2024)
